In patent US8653263B2 (Janssen Pharmaceutica, priority 2009, dated 2014):

Target: human orexin-2 receptor (Homo sapiens (Human), UniProt O43614)
Assay: Human orexin 2 receptor radioligand binding ([3H]-EMPA competition)
Conditions: HEK293 cells stably expressing human orexin-2 receptor; [3H]-EMPA 5 nM final; apparent Ki=IC50/(1+C/Kd), Kd=2 nM; read-out: OR 2 Ki

human orexin-2 receptor, sequence (O43614 whole entry): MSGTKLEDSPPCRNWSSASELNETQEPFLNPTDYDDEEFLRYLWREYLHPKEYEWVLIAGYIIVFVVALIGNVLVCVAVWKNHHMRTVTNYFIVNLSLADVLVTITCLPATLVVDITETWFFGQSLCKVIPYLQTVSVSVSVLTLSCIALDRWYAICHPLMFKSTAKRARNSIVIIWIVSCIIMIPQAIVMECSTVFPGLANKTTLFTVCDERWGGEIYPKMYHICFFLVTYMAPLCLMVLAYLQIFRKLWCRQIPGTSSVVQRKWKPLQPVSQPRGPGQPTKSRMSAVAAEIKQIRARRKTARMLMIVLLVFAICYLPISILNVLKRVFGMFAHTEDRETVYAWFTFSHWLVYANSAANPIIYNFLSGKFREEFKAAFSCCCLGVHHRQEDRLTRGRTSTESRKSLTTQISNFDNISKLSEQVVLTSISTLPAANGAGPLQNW

Ki	Structure (SMILES)
1500 nM	CCCOc1cccnc1C(=O)N1CC2CN(c3nc(C)cc(C)n3)CC2C1 (centres unmarked) [Example 344, (5-(4,6-dimethylpyrimidin-2-yl)hexahydropyrrolo[3,4-c]pyrrol-2(1H)-yl)(3-propoxypyridin-2-yl)methanone]
80 nM	CCOc1ccc2ccccc2c1C(=O)N1CC2CN(c3nccc(OC)n3)CC2C1 (centres unmarked) [Example 56, 2-[(2-Ethoxynaphthalen-1-yl)carbonyl]-5-(4-methoxypyrimidin-2-yl)octahydropyrrolo[3,4-c]pyrrole]
1200 nM	COc1cccc(OC)c1C(=O)N1CC2CN(c3nc(C)cc(C)n3)CC2C1 (centres unmarked) [Example 351, (2,6-Dimethoxyphenyl)(5-(4,6-dimethylpyrimidin-2-yl)hexahydropyrrolo[3,4-c]pyrrol-2(1H)-yl)methanone]
16 nM	O=C(c1cccc(F)c1-c1ncccn1)N1CC2CN(c3ncc4cc(F)ccc4n3)CC2C1 (centres unmarked) [Example 243, (3-Fluoro-2-(pyrimidin-2-yl)phenyl)(5-(6-fluoroquinazolin-2-yl)hexahydropyrrolo[3,4-c]pyrrol-2(1H)-yl)methanone]
237 nM	CCc1ccccc1C(=O)N1CC2CN(c3nc(C)cc(C)n3)CC2C1 (centres unmarked) [Example 76, 2-(4,6-Dimethylpyrimidin-2-yl)-5-[(2-ethylphenyl)carbonyl]octahydropyrrolo[3,4-c]pyrrole]
110 nM	Cc1ccc2ccccc2c1C(=O)N1CC2CN(c3nccc(-c4ccccc4)n3)CC2C1 (centres unmarked) [Example 25, 2-[(2-Methylnaphthalen-1-yl)carbonyl]-5-(4-phenylpyrimidin-2-yl)octahydropyrrolo[3,4-c]pyrrole]
452 nM	Cc1cc(C)nc(N2CC3CN(C(=O)c4ccc(F)cc4C(F)(F)F)CC3C2)n1 (centres unmarked) [Example 89, 2-(4,6-Dimethylpyrimidin-2-yl)-5-{[4-fluoro-2-(trifluoromethyl)phenyl]carbonyl}octahydropyrrolo[3,4-c]pyrrole]
14 nM	Cc1cc(C)nc(N2CC3CN(C(=O)c4cc(F)ccc4-c4ncccn4)CC3C2)n1 (centres unmarked) [Example 74, 2-(4,6-Dimethylpyrimidin-2-yl)-5-[(5-fluoro-2-pyrimidin-2-ylphenyl)carbonyl]octahydropyrrolo[3,4-c]pyrrole]
865 nM	Cc1cc(N2CC3CN(C(=O)c4ccccc4-n4nccn4)CC3C2)nc(C)n1 (centres unmarked) [Example 122, 2-(2,6-Dimethylpyrimidin-4-yl)-5-{[2-(2H-1,2,3-triazol-2-yl)phenyl]carbonyl}octahydropyrrolo[3,4-c]pyrrole]
44 nM	Cc1cncc(N2CC3CN(C(=O)c4ccccc4-n4nccn4)CC3C2)n1 (centres unmarked) [Example 211, [5-(6-Methyl-pyrazin-2-yl)-hexahydro-pyrrolo[3,4-c]pyrrol-2-yl]-(2-[1,2,3]triazol-2-yl-phenyl)-methanone]
42 nM	Cc1ccnc(-c2c(F)cccc2C(=O)N2CC3CN(c4nc(C)cc(C)n4)CC3C2)c1 (centres unmarked) [Example 373, (5-(4,6-Dimethylpyrimidin-2-yl)hexahydropyrrolo[3,4-c]pyrrol-2(1H)-yl)(3-fluoro-2-(4-methylpyridin-2-yl)phenyl)methanone]
500 nM	Cc1cc(C)nc(N2CC3CN(C(=O)c4cccc(F)c4C)CC3C2)n1 (centres unmarked) [Example 220, 2-(4,6-Dimethylpyrimidin-2-yl)-5-[(3-fluoro-2-methylphenyl)carbonyl]octahydropyrrolo[3,4-c]pyrrole]
46 nM	CN(C)c1nc(N2CC3CN(C(=O)c4cc(F)ccc4-c4ncccn4)CC3C2)cc(C(F)(F)F)n1 (centres unmarked) [Example 109, 4-{5-[(5-Fluoro-2-pyrimidin-2-ylphenyl)carbonyl]hexahydropyrrolo[3,4-c]pyrrol-2(1H)-yl}-N,N-dimethyl-6-(trifluoromethyl)pyrimidin-2-amine]
425 nM	O=C(c1ccccc1-c1ccccc1)N1CC2CN(c3nccc(-c4ccco4)n3)CC2C1 (centres unmarked) [Example 31, 2-(Biphenyl-2-ylcarbonyl)-5-(4-furan-2-ylpyrimidin-2-yl)octahydropyrrolo[3,4-c]pyrrole]
129 nM	O=C(c1cc(F)ccc1-c1ncccn1)N1CC2CN(c3nccc(C(F)(F)F)n3)CC2C1 (centres unmarked) [Example 148, 2-[(5-Fluoro-2-pyrimidin-2-ylphenyl)carbonyl]-5-[4-(trifluoromethyl)pyrimidin-2-yl]octahydropyrrolo[3,4-c]pyrrole]
1400 nM	Cc1cc(C)nc(N2CC3CN(C(=O)c4cccc(F)c4-n4ccnn4)CC3C2)n1 (centres unmarked) [Example 287, 2-(4,6-Dimethylpyrimidin-2-yl)-5-{[3-fluoro-2-(1H-1,2,3-triazol-1-yl)phenyl]carbonyl}octahydropyrrolo[3,4-c]pyrrole]
1030 nM	O=C(c1ccccc1-c1nnc[nH]1)N1CC2CN(c3nccc(-c4ccccc4)n3)CC2C1 (centres unmarked) [Example 141, [5-(4-Phenyl-pyrimidin-2-yl)-hexahydro-pyrrolo[3,4-c]pyrrol-2-yl]-[2-(4H-[1,2,4]triazol-3-yl)-phenyl]-methanone]
5000 nM	Cc1cc(C)nc(N2CC3CN(C(=O)c4ccccc4C#N)CC3C2)n1 (centres unmarked) [Example 202, 2-[5-(4,6-Dimethyl-pyrimidin-2-yl)-hexahydro-pyrrolo[3,4-c]pyrrole-2-carbonyl]-benzonitrile]
1220 nM	Cc1cc(N2CC3CN(C(=O)c4ccccc4-n4nccn4)CC3C2)nc(C(C)C)n1 (centres unmarked) [Example 81, [5-(2-Isopropyl-6-methyl-pyrimidin-4-yl)-hexahydro-pyrrolo[3,4-c]pyrrol-2-yl]-(2-[1,2,3]triazol-2-yl-phenyl)-methanone]
52 nM	CN(C)c1nc(N2CC3CN(C(=O)c4cc(F)ccc4-n4nccn4)CC3C2)cc(C(F)(F)F)n1 (centres unmarked) [Example 110, 4-[5-{[5-Fluoro-2-(2H-1,2,3-triazol-2-yl)phenyl]carbonyl}hexahydropyrrolo[3,4-c]pyrrol-2(1H)-yl]-N,N-dimethyl-6-(trifluoromethyl)pyrimidin-2-amine]
2610 nM	Cc1ccc2nc(N3CC4CN(C(=O)c5ccccc5-c5ccccc5)CC4C3)sc2c1 (centres unmarked) [Example 188, Biphenyl-2-yl-[5-(6-methyl-benzothiazol-2-yl)-hexahydro-pyrrolo[3,4-c]pyrrol-2-yl]-methanone]
680 nM	COc1ccc(C(=O)N2CC3CN(c4nc(C)cc(C)n4)CC3C2)c(C)c1 (centres unmarked) [Example 277, (5-(4,6-Dimethylpyrimidin-2-yl)hexahydropyrrolo[3,4-c]pyrrol-2(1H)-yl)(4-methoxy-2-methylphenyl)methanone]
87 nM	O=C(c1ccccc1-n1nccn1)N1CC2CN(c3nc4ccccc4o3)CC2C1 (centres unmarked) [Example 144, 2-[5-{[2-(2H-1,2,3-Triazol-2-yl)phenyl]carbonyl}hexahydropyrrolo[3,4-c]pyrrol-2(1H)-yl]-1,3-benzoxazole]
33 nM	Cc1cnc(C)c(N2CC3CN(C(=O)c4ccccc4-n4nccn4)CC3C2)n1 (centres unmarked) [Example 155, 2-(3,6-Dimethylpyrazin-2-yl)-5-{[2-(2H-1,2,3-triazol-2-yl)phenyl]carbonyl}octahydropyrrolo[3,4-c]pyrrole]
58 nM	COc1cc(OC)nc(N2CC3CN(C(=O)c4ccc(F)cc4-n4nccn4)CC3C2)n1 (centres unmarked) [Example 160, 2-(4,6-Dimethoxypyrimidin-2-yl)-5-{[4-fluoro-2-(2H-1,2,3-triazol-2-yl)phenyl]carbonyl}octahydropyrrolo[3,4-c]pyrrole]
98 nM	O=C(c1ccccc1-c1nnc[nH]1)N1CC2CN(c3cnc4ccccc4n3)CC2C1 (centres unmarked) [Example 85, 2-[5-{[2-(4H-1,2,4-Triazol-3-yl)phenyl]carbonyl}hexahydropyrrolo[3,4-c]pyrrol-2(1H)-yl]quinoxaline]
